Assay results taken from PMC7933930, “Development of a small molecule that corrects misfolding and increases secretion of Z α1‐antitrypsin” (EMBO Molecular Medicine, 2021).
pEC50, pIC50: −log10 of the molar value. Like-named read-outs stand apart in the source and are kept apart here.

Assays:
Assay type in all cases: cell-based
[1] = system: Z α1‐antitrypsin secretion in iPSC‐derived human hepatocytes (ZZ genotype); assay: Secretion of Z α1‐antitrypsin from ZZ iPSC‐derived human hepatocytes
Procedure: The ability of GSK716 to block Z α1‐antitrypsin polymerisation in the ER during folding was assessed by adding GSK716 to CHO‐TET‐ON‐Z‐A1AT cells (Ordóñez et al, 2013) with simultaneous induction of Z α1‐antitrypsin expression using doxycycline. […] Similar potency between the effects on secretion and polymerisation was observed throughout members of the lead series supporting the hypothesis that these effects are caused by the same pharmacological mode of action.
Figure 2 GSK716 inhibits polymerisation of Z α1‐antitrypsin in cell models of disease • A GSK716 was added to CHO‐TET‐ON‐Z‐A1AT cells (Ordóñez et al, 2013) with simultaneous induction of Z α1‐antitrypsin expression using doxycycline, and polymer load was quantified with the 2C1 monoclonal antibody that is specific to pathological polymers of α1‐antitrypsin (Miranda et al, 2010). […] Data were normalised to vehicle and a control compound from the GSK716 series at saturating concentration. […] It induced an approximately threefold increase in secreted levels of Z α1‐antitrypsin compared with vehicle control. […] For every time point, NP‐40‐soluble and NP‐40‐insoluble fractions were separated and immunoprecipitated with the 2C1 mAb and resolved by 4–12% w/v SDS–PAGE and α1‐antitrypsin detected by immunoblotting. […] Cell viability was measured by Cell Counting Kit‐8. […] Samples were resolved by 4–12% w/v acrylamide SDS–PAGE and detected by autoradiography. • H The graphs show the effect of GSK716 on intracellular and extracellular Z α1‐antitrypsin (mean ± SEM, n = 2).
The accumulation and clearance of Z α1‐antitrypsin polymer was measured with the 2C1 monoclonal antibody that is specific for polymerised antitrypsin in CHO‐TET‐ON‐Z‐α1AT cells (Ordóñez et al, 2013) and iPSC‐derived hepatocytes generated from a patient with a PiZZ genotype (Yusa et al, 2011). Secretion of Z α1‐antitrypsin was determined by TR‐FRET. Cell viability was analysed with Cell Counting Kit‐8 (Sigma) after treating the cells with 10 µM GSK716 or 0.1% v/v DMSO (vehicle) and an increasing concentration of tunicamycin (0.8–0.01 µg/ml).

Muscarinic M1 = target: T1, Muscarinic M1 (Homo sapiens, UniProt P11229); assay: Off‐target panel: Muscarinic M1 (DRX)
T1 sequence (P11229 1-460): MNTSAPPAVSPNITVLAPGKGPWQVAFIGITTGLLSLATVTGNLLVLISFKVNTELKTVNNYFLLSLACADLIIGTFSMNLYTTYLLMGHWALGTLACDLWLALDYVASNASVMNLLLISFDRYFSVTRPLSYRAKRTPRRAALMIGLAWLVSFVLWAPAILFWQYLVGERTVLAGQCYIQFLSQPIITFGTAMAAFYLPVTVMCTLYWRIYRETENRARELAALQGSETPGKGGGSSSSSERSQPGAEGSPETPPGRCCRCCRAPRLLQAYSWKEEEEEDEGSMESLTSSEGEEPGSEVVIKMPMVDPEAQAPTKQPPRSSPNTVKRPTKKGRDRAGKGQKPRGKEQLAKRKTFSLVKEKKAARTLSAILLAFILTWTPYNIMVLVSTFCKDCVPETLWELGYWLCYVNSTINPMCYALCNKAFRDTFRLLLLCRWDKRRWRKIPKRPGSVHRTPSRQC
Procedure: (§1) GSK716 selectivity and PK properties were profiled in order to investigate the suitability of GSK716 for progression into in vivo studies and the potential for taking it forward as a clinical candidate for testing in humans. Since GSK716 results in loss of inhibitory activity of α1‐antitrypsin, the effect of the compound was assessed on other closely related serpins. […] Furthermore, there were no off‐target effects in a panel of assays considered predictive of known safety liabilities that precluded further development of GSK716 (Table EV1).

Cannabinoid CB2 = Cannabinoid CB2 (Homo sapiens, UniProt P34972); assay: Off‐target panel: Cannabinoid CB2
Procedure: as §1

Sequence of Cannabinoid CB2 (P34972 whole entry): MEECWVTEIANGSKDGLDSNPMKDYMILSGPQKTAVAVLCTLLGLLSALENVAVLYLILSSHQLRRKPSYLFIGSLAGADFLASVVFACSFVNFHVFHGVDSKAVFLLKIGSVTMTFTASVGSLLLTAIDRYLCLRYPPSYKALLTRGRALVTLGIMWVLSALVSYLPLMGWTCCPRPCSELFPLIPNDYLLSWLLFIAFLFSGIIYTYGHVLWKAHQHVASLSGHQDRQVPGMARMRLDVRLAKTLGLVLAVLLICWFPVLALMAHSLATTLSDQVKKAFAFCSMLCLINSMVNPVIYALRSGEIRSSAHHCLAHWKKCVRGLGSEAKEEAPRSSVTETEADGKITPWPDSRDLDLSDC

CCC[C@@H](NC(=O)c1cccc2c1CC(=O)N2)[C@@H](O)c1cccc(F)c1C [GSK716]
EC50 ([1]; Hepatocyte, ZZ iPSC‐derived human hepatocytes, n = 14, read-out: mean pEC50, secretion (converted)): 316 nM | pEC50 ([1]; Homo sapiens, Hepatocyte, as quoted for the PK‐PD target concentration, cell system not stated there, read-out: cellular secretion assay EC50): 6.52 | increase in secreted levels of Z α1‐antitrypsin compared with vehicle control ([1]; ZZ iPSC‐derived human hepatocytes): approximately threefold | pEC50 (Muscarinic M1): < 4.30 | pIC50 (Muscarinic M1): < 4.30 | pEC50 (Cannabinoid CB2): < 4.00
